Reference: ChEMBL document CHEMBL4507258 (2021)

Columns and labels:
[1] = target: Casein kinase I isoform gamma-1 (Homo sapiens) (UniProt Q9HCP0); settings: Compound concentration 1000.0 nM
[2] = target: Phosphatidylinositol 3-kinase catalytic subunit type 3 (Homo sapiens) (UniProt Q8NEB9); settings: Compound concentration 1000.0 nM
Histamine H1 receptor = Histamine H1 receptor (Homo sapiens, UniProt P35367); settings: Compound concentration 10.0 uM
[3] = target: Tyrosine-protein kinase Fer (Homo sapiens) (UniProt P16591); settings: Compound concentration 1000.0 nM
[4] = target: Serine/threonine-protein kinase ULK1 (Homo sapiens) (UniProt O75385); settings: Compound concentration 1000.0 nM
[5] = target: Serine/threonine-protein kinase Chk1 (Homo sapiens) (UniProt O14757); settings: Compound concentration 1000.0 nM
[6] = target: Mitogen-activated protein kinase 10 (Homo sapiens) (UniProt P53779); settings: Compound concentration 1000.0 nM
[7] = tested on: Proto-oncogene tyrosine-protein kinase receptor Ret (Homo sapiens), P07949 [M918T]; settings: Compound concentration 1000.0 nM
[8] = target: Bone morphogenetic protein receptor type-2 (Homo sapiens) (UniProt Q13873); settings: Compound concentration 1000.0 nM
[9] = tested on: Tyrosine-protein kinase ABL1 (Homo sapiens), P00519 [H396P]; settings: Compound concentration 1000.0 nM
[10] = target: STE20/SPS1-related proline-alanine-rich protein kinase (Homo sapiens) (UniProt Q9UEW8); settings: Compound concentration 1000.0 nM
[11] = target: Myosin light chain kinase (Homo sapiens) (UniProt Q32MK0); settings: Compound concentration 1000.0 nM
[12] = tested on: Phosphatidylinositol 4,5-bisphosphate 3-kinase catalytic subunit alpha isoform (Homo sapiens), P42336 [H1047L]; settings: Compound concentration 1000.0 nM
[13] = target: Mitogen-activated protein kinase 15 (Homo sapiens) (UniProt Q8TD08); settings: Compound concentration 1000.0 nM
[14] = target: Mitogen-activated protein kinase 9 (Homo sapiens) (UniProt P45984); settings: Compound concentration 1000.0 nM
[15] = target: Calcium/calmodulin-dependent protein kinase type II subunit delta (Homo sapiens) (UniProt Q13557); settings: Compound concentration 1000.0 nM
[16] = target: Interleukin-1 receptor-associated kinase 1 (Homo sapiens) (UniProt P51617); settings: Compound concentration 1000.0 nM
[17] = tested on: Receptor-type tyrosine-protein kinase FLT3 (Homo sapiens), P36888 [UNDEFINED MUTATION]; settings: Compound concentration 1000.0 nM
[18] = target: Phosphatidylinositol 4,5-bisphosphate 3-kinase catalytic subunit gamma isoform (Homo sapiens) (UniProt P48736); settings: Compound concentration 1000.0 nM
[19] = target: Ephrin type-A receptor 4 (Homo sapiens) (UniProt P54764); settings: Compound concentration 1000.0 nM
[20] = target: Tyrosine-protein kinase Blk (Homo sapiens) (UniProt P51451); settings: Compound concentration 1000.0 nM
[21] = target: Muscarinic acetylcholine receptor M3 (Homo sapiens) (UniProt P20309); settings: Compound concentration 10.0 uM
[22] = tested on: Epidermal growth factor receptor (Homo sapiens), P00533 [L858R]; settings: Compound concentration 1000.0 nM
[23] = target: Uncharacterized serine/threonine-protein kinase SBK3 (Homo sapiens) (UniProt P0C264); settings: Compound concentration 1000.0 nM
[24] = target: Proto-oncogene tyrosine-protein kinase ROS (Homo sapiens) (UniProt P08922); settings: Compound concentration 1000.0 nM
[25] = target: Serine/threonine-protein kinase 32C (Homo sapiens) (UniProt Q86UX6); settings: Compound concentration 1000.0 nM
[26] = target: Cyclin-dependent kinase 3 (Homo sapiens) (UniProt Q00526); settings: Compound concentration 1000.0 nM
[27] = target: Rhodopsin kinase GRK7 (Homo sapiens) (UniProt Q8WTQ7); settings: Compound concentration 1000.0 nM
[28] = target: Serine/threonine-protein kinase ULK3 (Homo sapiens) (UniProt Q6PHR2); settings: Compound concentration 1000.0 nM
[29] = target: Muscle, skeletal receptor tyrosine-protein kinase (Homo sapiens) (UniProt O15146); settings: Compound concentration 1000.0 nM
[30] = target: Ephrin type-A receptor 5 (Homo sapiens) (UniProt P54756); settings: Compound concentration 1000.0 nM
[31] = target: Insulin-like growth factor 1 receptor (Homo sapiens) (UniProt P08069); settings: Compound concentration 1000.0 nM
[32] = target: Serine/threonine-protein kinase 26 (Homo sapiens) (UniProt Q9P289); settings: Compound concentration 1000.0 nM
[33] = tested on: ALK tyrosine kinase receptor (Homo sapiens), Q9UM73 [L1196M]; settings: Compound concentration 1000.0 nM
[34] = tested on: eIF-2-alpha kinase GCN2 (Homo sapiens), Q9P2K8 [S808G]; settings: Compound concentration 1000.0 nM
[35] = target: Dual specificity mitogen-activated protein kinase kinase 4 (Homo sapiens) (UniProt P45985); settings: Compound concentration 1000.0 nM
[36] = target: Calcium/calmodulin-dependent protein kinase kinase 1 (Homo sapiens) (UniProt Q8N5S9); settings: Compound concentration 1000.0 nM
[37] = target: Protein kinase C epsilon type (Homo sapiens) (UniProt Q02156); settings: Compound concentration 1000.0 nM
[38] = target: Fibroblast growth factor receptor 2 (Homo sapiens) (UniProt P21802); settings: Compound concentration 1000.0 nM
[39] = tested on: Epidermal growth factor receptor (Homo sapiens), P00533 [G719S]; settings: Compound concentration 1000.0 nM
[40] = tested on: Hepatocyte growth factor receptor (Homo sapiens), P08581 [M1250T]; settings: Compound concentration 1000.0 nM
[41] = tested on: Mast/stem cell growth factor receptor Kit (Homo sapiens), P10721 [V559D,V654A]; settings: Compound concentration 1000.0 nM
[42] = target: Fibroblast growth factor receptor 4 (Homo sapiens) (UniProt P22455); settings: Compound concentration 1000.0 nM
[43] = target: Calcium/calmodulin-dependent protein kinase type 1D (Homo sapiens) (UniProt Q8IU85); settings: Compound concentration 1000.0 nM
[44] = target: AP2-associated protein kinase 1 (Homo sapiens) (UniProt Q2M2I8); settings: Compound concentration 1000.0 nM

Sequence of Ephrin type-A receptor 5 (Homo sapiens) (P54756 whole entry): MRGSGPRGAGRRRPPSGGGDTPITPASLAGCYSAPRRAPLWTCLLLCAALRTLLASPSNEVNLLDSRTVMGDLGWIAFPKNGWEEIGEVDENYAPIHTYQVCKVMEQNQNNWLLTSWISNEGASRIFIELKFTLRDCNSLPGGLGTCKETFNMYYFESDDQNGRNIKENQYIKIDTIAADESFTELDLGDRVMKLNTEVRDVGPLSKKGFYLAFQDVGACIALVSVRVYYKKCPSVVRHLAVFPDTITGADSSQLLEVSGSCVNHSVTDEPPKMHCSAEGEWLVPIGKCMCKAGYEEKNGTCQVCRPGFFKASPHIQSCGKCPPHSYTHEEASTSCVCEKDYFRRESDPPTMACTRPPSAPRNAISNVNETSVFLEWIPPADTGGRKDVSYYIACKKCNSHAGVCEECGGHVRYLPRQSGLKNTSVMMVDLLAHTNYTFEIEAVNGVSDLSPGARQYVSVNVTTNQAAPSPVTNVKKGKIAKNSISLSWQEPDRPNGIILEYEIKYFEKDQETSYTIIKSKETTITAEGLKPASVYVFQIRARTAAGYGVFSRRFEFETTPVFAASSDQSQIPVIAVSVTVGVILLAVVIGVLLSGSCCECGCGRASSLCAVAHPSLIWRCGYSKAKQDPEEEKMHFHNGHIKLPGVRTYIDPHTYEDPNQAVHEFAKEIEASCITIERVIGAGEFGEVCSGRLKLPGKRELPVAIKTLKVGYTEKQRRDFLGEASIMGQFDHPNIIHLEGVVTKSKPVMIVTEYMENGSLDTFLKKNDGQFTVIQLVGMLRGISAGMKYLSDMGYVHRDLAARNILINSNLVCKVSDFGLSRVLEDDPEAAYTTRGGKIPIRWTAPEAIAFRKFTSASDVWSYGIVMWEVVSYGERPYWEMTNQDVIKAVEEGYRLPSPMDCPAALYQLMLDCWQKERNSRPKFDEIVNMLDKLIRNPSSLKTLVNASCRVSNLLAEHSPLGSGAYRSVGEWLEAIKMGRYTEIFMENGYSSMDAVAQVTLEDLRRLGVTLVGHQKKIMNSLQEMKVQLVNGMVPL
Sequence of Calcium/calmodulin-dependent protein kinase type 1D (Homo sapiens) (Q8IU85 whole entry, looked up): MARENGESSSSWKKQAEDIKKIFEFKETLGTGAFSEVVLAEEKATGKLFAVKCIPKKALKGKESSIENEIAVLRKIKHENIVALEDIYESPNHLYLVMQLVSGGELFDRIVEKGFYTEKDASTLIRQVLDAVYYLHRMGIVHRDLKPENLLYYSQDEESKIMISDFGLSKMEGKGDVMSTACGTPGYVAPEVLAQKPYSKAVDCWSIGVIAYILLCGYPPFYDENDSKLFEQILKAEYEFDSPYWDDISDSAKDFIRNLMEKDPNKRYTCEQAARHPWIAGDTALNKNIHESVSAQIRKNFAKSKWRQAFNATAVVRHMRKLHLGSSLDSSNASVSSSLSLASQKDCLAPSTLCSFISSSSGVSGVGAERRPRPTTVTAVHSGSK
Sequence of Serine/threonine-protein kinase Chk1 (Homo sapiens) (O14757 whole entry): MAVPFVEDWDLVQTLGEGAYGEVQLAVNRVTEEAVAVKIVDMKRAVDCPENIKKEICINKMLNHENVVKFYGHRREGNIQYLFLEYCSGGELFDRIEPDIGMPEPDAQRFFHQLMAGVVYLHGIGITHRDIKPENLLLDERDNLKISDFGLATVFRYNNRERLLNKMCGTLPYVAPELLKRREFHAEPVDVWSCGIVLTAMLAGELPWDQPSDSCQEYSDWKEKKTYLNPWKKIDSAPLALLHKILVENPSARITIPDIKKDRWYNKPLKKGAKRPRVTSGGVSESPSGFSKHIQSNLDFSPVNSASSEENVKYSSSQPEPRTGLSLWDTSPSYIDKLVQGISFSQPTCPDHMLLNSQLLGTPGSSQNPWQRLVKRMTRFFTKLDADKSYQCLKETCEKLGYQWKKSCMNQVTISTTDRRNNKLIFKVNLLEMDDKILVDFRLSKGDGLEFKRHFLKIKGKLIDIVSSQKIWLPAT
Sequence of Mast/stem cell growth factor receptor Kit (Homo sapiens), P10721 [V559D,V654A] (P10721 whole entry V559D/V654A): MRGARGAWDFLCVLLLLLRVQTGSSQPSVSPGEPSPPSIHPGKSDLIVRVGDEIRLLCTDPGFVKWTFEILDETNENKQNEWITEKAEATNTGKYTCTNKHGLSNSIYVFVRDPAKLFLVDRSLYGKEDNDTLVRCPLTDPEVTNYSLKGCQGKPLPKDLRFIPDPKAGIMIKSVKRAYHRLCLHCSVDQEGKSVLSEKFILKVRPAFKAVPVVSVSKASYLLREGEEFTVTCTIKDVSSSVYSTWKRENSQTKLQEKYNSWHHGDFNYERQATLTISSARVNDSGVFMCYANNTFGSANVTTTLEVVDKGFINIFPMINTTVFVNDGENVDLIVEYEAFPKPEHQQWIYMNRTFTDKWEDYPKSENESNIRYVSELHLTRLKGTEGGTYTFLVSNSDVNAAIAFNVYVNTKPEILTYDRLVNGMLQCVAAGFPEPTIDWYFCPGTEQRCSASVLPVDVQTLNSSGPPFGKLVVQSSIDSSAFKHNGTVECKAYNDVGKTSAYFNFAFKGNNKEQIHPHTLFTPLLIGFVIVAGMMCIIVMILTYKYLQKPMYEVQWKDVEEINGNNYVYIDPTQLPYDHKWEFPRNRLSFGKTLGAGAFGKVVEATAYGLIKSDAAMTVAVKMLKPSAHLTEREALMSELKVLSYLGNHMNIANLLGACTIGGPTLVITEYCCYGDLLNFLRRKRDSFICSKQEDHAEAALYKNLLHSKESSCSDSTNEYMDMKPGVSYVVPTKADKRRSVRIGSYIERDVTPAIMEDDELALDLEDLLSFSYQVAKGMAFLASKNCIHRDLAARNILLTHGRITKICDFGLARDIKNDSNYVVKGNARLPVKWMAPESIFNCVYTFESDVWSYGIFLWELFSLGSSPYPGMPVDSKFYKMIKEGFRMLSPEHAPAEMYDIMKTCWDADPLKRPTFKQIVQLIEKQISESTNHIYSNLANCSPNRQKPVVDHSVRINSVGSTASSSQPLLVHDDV
Sequence of Bone morphogenetic protein receptor type-2 (Homo sapiens) (Q13873 whole entry): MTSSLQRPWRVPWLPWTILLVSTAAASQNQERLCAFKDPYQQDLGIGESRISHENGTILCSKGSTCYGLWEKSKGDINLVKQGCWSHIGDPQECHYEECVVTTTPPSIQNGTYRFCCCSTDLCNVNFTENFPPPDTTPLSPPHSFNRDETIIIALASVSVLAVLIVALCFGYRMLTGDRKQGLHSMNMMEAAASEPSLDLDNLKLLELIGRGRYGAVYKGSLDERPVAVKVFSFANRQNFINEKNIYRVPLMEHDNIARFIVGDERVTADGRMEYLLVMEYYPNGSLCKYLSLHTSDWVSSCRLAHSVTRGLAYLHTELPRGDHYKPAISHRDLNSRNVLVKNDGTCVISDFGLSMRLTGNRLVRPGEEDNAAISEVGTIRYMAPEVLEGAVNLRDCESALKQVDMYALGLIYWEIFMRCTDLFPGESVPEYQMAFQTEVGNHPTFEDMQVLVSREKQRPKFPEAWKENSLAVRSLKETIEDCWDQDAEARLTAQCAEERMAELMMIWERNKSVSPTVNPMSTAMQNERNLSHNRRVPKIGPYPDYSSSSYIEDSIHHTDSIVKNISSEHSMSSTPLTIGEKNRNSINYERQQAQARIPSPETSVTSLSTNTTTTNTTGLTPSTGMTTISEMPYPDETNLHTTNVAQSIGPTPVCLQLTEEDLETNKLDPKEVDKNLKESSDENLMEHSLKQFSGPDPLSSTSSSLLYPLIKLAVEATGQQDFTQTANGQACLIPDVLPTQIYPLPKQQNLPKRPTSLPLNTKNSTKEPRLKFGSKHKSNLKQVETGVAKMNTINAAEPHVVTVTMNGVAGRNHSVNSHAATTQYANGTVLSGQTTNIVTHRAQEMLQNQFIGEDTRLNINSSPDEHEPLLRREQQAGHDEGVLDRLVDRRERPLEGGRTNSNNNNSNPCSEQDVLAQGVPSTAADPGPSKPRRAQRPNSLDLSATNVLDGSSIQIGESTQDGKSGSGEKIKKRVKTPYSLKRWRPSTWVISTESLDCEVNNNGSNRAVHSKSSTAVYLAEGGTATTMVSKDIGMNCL
Sequence of Serine/threonine-protein kinase ULK3 (Homo sapiens) (Q6PHR2 whole entry): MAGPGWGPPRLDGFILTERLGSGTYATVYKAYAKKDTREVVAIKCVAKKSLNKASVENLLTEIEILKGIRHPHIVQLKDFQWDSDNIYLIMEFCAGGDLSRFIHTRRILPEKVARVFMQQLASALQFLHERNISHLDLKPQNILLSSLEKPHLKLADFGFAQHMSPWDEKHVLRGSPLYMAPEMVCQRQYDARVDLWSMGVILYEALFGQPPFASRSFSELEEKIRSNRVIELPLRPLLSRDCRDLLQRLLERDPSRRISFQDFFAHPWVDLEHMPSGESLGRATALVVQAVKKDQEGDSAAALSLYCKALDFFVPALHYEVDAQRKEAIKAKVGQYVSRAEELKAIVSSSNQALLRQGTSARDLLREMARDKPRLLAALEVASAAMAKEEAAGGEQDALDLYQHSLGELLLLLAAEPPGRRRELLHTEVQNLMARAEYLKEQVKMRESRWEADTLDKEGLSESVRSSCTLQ
Sequence of Cyclin-dependent kinase 3 (Homo sapiens) (Q00526 whole entry, looked up): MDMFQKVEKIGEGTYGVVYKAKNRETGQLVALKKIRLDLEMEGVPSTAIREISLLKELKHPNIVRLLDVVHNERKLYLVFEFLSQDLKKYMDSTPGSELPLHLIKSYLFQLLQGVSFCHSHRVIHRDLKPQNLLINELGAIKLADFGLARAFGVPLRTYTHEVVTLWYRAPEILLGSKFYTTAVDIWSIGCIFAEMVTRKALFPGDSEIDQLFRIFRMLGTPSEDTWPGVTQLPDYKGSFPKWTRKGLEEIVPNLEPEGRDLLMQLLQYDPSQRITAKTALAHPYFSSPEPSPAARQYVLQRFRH
Sequence of Uncharacterized serine/threonine-protein kinase SBK3 (Homo sapiens) (P0C264 whole entry): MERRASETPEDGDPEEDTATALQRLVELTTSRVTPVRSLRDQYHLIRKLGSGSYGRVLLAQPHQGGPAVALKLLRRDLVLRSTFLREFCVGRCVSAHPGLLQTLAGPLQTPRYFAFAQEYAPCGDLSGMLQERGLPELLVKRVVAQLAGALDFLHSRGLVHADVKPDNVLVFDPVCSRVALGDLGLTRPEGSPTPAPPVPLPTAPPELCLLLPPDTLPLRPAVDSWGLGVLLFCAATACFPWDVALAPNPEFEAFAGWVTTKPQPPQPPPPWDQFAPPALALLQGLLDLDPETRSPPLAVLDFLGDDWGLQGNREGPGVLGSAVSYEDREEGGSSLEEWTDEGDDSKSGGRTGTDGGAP

SMILES: CCCCN(CCCC)C(=O)CN1C[C@@H](c2cc(OC)c3c(c2)OCO3)[C@H](C(=O)O)[C@H]1CC(C)(C)CCC [A-545]
- residual activity [1]: 100%
- residual activity [2]: 98.7%
- inhibition (Histamine H1 receptor): 47.4%
- residual activity [3]: 100%
- residual activity [4]: 89.2%
- residual activity [5]: 100%
- residual activity [6]: 100%
- residual activity [7]: 100%
- residual activity [8]: 86.7%
- residual activity [9]: 100%
- residual activity [10]: 100%
- residual activity [11]: 100%
- residual activity [12]: 62.4%
- residual activity [13]: 100%
- residual activity [14]: 100%
- residual activity [15]: 99.9%
- residual activity [16]: 76.6%
- residual activity [17]: 99.1%
- residual activity [18]: 90.8%
- residual activity [19]: 95.7%
- residual activity [20]: 100%
- inhibition [21]: 10.3%
- residual activity [22]: 100%
- residual activity [23]: 100%
- residual activity [24]: 100%
- residual activity [25]: 100%
- residual activity [26]: 88.1%
- residual activity [27]: 90.8%
- residual activity [28]: 90.7%
- residual activity [29]: 78.7%
- residual activity [30]: 81.9%
- residual activity [31]: 97%
- residual activity [32]: 100%
- residual activity [33]: 100%
- residual activity [34]: 100%
- residual activity [35]: 93.3%
- residual activity [36]: 100%
- residual activity [37]: 100%
- residual activity [38]: 83.2%
- residual activity [39]: 100%
- residual activity [40]: 100%
- residual activity [41]: 100%
- residual activity [42]: 95.8%
- residual activity [43]: 94.4%
- residual activity [44]: 100%

SMILES: CCCCN(CCCC)C(=O)CN1C[C@H](c2cc(OC)c3c(c2)OCO3)[C@@H](C(=O)O)[C@@H]1CC(C)(C)CCC [ABT-546]
- residual activity [1]: 100%
- residual activity [2]: 49.9%
- inhibition (Histamine H1 receptor): 53.6%
- residual activity [3]: 100%
- residual activity [4]: 79.4%
- residual activity [5]: 100%
- residual activity [6]: 91.1%
- residual activity [7]: 100%
- residual activity [8]: 80%
- residual activity [9]: 96.1%
- residual activity [10]: 100%
- residual activity [11]: 100%
- residual activity [12]: 100%
- residual activity [13]: 100%
- residual activity [14]: 100%
- residual activity [15]: 100%
- residual activity [16]: 64.3%
- residual activity [17]: 90.6%
- residual activity [18]: 76.9%
- residual activity [19]: 100%
- residual activity [20]: 95.8%
- inhibition [21]: -9.94%
- residual activity [22]: 99.7%
- residual activity [23]: 100%
- residual activity [24]: 100%
- residual activity [25]: 100%
- residual activity [26]: 100%
- residual activity [27]: 98.3%
- residual activity [28]: 86.7%
- residual activity [29]: 100%
- residual activity [30]: 100%
- residual activity [31]: 100%
- residual activity [32]: 72.9%
- residual activity [33]: 100%
- residual activity [34]: 100%
- residual activity [35]: 74.4%
- residual activity [36]: 100%
- residual activity [37]: 100%
- residual activity [38]: 100%
- residual activity [39]: 100%
- residual activity [40]: 100%
- residual activity [41]: 100%
- residual activity [42]: 100%
- residual activity [43]: 100%
- residual activity [44]: 100%
